Results taken from ChEMBL document CHEMBL5291721, “A preclinical secondary pharmacology resource illuminates target-adverse drug reaction associations of marketed drugs” (Nat Commun, 2023).

Assays:
B2 bradykinin receptor = biological target: T1, B2 bradykinin receptor (Homo sapiens, UniProt P30411)
T1 sequence (P30411 whole entry): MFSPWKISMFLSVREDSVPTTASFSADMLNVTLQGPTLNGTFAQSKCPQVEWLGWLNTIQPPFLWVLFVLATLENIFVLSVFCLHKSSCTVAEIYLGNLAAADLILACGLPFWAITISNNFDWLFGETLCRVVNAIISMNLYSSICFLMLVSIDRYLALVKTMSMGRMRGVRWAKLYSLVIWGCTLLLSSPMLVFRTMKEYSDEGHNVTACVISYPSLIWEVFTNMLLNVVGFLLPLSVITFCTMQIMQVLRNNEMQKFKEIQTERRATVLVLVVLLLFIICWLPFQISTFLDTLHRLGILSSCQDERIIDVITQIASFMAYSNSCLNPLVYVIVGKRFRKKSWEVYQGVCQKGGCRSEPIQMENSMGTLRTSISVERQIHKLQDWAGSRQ

[1] = biological target: T2, Alpha-2A adrenergic receptor (Homo sapiens, UniProt P08913); assay type: functional, cell-based
T2 sequence (P08913 whole entry): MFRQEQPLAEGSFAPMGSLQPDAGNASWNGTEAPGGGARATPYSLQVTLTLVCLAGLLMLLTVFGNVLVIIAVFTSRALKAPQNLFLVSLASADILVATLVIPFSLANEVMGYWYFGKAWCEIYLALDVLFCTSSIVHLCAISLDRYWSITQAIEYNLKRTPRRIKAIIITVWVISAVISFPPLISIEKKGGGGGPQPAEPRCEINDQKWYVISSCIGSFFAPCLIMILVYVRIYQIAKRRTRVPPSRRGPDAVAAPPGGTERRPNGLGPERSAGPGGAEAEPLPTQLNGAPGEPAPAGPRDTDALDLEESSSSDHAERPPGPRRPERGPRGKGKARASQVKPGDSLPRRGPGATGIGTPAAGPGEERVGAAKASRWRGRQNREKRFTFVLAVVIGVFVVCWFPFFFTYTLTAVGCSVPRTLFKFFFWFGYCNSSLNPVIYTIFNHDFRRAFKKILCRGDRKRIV

Endothelin-1 receptor = biological target: T3, Endothelin-1 receptor (Homo sapiens, UniProt P25101)
T3 sequence (P25101 whole entry): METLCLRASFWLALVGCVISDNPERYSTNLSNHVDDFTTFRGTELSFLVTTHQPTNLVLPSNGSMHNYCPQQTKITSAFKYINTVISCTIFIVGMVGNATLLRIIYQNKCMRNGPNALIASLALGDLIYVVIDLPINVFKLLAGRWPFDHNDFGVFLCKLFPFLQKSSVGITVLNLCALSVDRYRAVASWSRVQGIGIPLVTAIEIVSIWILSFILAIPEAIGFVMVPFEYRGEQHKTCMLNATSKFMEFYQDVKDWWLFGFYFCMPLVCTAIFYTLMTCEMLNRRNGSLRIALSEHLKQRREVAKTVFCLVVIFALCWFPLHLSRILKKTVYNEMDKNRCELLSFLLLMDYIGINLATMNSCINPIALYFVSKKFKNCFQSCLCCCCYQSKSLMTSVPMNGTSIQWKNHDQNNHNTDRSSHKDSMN

[2] = biological target: Beta-1 adrenergic receptor (Homo sapiens, UniProt P08588); assay type: functional
Sequence of Beta-1 adrenergic receptor (P08588 whole entry): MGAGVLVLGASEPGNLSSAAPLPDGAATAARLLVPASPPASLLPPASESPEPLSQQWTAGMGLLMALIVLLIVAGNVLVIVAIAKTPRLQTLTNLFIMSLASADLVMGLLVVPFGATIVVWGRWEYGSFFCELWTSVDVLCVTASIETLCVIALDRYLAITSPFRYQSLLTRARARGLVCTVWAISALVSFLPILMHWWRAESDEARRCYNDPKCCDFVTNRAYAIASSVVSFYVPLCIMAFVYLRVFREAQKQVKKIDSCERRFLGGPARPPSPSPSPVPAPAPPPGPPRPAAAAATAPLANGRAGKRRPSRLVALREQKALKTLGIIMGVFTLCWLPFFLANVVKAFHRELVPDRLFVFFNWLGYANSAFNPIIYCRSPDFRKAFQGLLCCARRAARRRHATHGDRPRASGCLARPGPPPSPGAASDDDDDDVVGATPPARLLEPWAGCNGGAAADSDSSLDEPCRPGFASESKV

[3] = biological target: T4, 5-hydroxytryptamine receptor 2A (Homo sapiens, UniProt P28223); assay type: functional, cell-based
T4 sequence (P28223 whole entry): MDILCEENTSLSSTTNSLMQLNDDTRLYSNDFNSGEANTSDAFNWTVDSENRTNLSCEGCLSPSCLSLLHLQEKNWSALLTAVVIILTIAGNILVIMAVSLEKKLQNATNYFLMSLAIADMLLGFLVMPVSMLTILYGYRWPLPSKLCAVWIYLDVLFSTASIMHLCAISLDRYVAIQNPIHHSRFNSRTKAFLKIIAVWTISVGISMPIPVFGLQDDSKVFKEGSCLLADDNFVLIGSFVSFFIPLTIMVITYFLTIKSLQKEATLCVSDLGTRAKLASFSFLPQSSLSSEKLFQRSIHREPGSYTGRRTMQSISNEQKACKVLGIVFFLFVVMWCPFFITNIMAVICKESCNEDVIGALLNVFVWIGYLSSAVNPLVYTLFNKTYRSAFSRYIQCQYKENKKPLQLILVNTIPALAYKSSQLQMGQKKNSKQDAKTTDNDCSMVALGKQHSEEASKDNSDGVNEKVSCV

[4] = biological target: T2, Alpha-2A adrenergic receptor; assay type: functional, cell-based; remark: listed apart in the source
D(1A) dopamine receptor = D(1A) dopamine receptor (Homo sapiens, UniProt P21728); assay type: functional, cell-based
Sequence of D(1A) dopamine receptor (P21728 whole entry): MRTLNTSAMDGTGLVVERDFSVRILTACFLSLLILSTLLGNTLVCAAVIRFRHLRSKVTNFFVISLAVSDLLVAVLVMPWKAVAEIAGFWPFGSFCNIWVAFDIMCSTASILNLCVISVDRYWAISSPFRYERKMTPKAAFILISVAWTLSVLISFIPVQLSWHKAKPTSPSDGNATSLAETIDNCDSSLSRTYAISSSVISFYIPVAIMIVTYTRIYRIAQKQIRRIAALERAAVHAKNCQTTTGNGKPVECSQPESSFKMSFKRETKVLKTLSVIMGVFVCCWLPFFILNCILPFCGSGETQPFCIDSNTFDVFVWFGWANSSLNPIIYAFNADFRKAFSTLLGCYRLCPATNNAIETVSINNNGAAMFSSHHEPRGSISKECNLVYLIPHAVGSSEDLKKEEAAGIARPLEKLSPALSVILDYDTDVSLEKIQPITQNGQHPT

Adenosine receptor A2a = Adenosine receptor A2a (Homo sapiens, UniProt P29274)
Sequence of Adenosine receptor A2a (P29274 whole entry): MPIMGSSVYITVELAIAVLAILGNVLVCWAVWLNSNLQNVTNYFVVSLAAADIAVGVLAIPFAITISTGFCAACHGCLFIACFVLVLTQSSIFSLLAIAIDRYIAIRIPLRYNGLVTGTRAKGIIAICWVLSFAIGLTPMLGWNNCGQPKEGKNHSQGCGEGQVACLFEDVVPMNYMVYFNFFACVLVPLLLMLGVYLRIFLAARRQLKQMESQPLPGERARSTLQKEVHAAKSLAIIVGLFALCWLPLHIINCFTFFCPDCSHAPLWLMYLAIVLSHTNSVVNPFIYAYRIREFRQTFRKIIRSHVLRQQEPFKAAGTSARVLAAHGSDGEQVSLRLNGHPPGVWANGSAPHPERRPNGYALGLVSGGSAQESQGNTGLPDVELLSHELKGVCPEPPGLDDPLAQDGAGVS

[5] = biological target: T5, Alpha-1A adrenergic receptor (Homo sapiens, UniProt P35348); assay type: functional, cell-based
T5 sequence (P35348 whole entry): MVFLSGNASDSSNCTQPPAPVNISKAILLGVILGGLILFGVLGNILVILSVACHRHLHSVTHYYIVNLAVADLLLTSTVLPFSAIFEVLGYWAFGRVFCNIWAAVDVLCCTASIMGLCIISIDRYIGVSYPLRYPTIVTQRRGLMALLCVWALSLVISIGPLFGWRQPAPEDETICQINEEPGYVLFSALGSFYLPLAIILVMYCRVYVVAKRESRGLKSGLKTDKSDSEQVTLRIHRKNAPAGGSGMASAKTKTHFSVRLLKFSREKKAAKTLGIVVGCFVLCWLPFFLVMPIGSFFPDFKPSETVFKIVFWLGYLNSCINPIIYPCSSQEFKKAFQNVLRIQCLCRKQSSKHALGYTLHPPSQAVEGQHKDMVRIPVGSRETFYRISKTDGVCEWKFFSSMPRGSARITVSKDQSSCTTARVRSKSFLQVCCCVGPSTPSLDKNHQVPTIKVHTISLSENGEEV

[6] = biological target: 5-hydroxytryptamine receptor 2B (Homo sapiens, UniProt P41595); assay type: functional, cell-based
Sequence of 5-hydroxytryptamine receptor 2B (P41595 whole entry): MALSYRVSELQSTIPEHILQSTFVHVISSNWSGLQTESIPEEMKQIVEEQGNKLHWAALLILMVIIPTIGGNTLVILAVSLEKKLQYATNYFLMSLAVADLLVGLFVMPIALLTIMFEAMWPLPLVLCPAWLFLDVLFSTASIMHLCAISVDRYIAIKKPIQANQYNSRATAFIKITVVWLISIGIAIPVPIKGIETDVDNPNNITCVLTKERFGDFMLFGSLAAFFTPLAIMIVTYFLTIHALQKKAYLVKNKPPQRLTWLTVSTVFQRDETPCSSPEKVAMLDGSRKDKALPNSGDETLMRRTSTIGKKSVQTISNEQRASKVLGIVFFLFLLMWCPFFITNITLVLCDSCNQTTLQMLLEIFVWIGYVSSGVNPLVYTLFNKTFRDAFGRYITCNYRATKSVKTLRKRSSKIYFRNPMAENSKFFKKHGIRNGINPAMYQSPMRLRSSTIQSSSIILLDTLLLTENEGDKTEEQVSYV

[7] = biological target: T6, Alpha-2C adrenergic receptor (Homo sapiens, UniProt P18825); assay type: functional
T6 sequence (P18825 whole entry): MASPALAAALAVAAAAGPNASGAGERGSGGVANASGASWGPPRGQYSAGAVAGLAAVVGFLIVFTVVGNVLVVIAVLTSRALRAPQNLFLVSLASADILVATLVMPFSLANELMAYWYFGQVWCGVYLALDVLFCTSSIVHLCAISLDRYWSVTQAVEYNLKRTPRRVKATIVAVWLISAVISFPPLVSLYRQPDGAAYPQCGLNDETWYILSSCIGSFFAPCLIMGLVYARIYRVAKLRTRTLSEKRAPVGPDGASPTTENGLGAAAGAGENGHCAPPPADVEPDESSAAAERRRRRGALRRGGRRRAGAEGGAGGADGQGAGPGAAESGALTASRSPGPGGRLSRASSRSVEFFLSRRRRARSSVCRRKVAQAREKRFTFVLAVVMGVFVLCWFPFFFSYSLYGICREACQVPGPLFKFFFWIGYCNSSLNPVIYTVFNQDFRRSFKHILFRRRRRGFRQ

[8] = biological target: T4, 5-hydroxytryptamine receptor 2A; assay type: functional, cell-based; remark: listed apart in the source
[9] = biological target: Neuronal acetylcholine receptor subunit alpha-4 (Homo sapiens, UniProt P43681)
Sequence of Neuronal acetylcholine receptor subunit alpha-4 (P43681 whole entry): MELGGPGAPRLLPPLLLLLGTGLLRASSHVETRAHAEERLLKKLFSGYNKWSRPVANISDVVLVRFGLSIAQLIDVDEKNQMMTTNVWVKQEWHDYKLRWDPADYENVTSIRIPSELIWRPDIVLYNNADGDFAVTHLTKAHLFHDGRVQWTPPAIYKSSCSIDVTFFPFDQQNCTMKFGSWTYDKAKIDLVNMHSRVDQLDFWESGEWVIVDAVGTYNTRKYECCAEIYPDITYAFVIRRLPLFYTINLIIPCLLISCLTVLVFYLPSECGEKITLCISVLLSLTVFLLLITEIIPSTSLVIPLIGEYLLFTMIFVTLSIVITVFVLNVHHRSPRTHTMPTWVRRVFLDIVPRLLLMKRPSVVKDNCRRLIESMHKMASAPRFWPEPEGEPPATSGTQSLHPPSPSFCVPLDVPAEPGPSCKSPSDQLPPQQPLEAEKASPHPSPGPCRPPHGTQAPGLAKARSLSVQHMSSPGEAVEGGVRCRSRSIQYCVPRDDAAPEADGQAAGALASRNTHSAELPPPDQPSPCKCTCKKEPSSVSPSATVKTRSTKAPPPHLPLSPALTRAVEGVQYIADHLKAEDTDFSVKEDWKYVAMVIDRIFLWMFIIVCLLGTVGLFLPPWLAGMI

[10] = biological target: Gamma-aminobutyric acid receptor subunit alpha-1 (Rattus norvegicus, UniProt P62813); assay type: functional
Sequence of Gamma-aminobutyric acid receptor subunit alpha-1 (P62813 whole entry): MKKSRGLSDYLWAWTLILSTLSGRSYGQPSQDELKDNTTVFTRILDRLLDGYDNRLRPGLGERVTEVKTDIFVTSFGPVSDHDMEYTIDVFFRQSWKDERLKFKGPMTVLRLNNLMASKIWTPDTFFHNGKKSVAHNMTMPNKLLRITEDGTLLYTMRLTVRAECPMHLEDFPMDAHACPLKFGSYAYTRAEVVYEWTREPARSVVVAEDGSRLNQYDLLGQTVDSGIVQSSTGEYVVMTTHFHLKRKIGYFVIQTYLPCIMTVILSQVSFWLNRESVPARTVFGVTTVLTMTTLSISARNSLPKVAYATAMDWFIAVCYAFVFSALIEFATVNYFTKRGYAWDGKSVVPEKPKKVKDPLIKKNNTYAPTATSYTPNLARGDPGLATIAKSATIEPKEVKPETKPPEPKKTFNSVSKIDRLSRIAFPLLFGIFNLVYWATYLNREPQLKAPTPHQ

Mu-type opioid receptor = Mu-type opioid receptor (Homo sapiens, UniProt P35372)
Sequence of Mu-type opioid receptor (P35372 whole entry): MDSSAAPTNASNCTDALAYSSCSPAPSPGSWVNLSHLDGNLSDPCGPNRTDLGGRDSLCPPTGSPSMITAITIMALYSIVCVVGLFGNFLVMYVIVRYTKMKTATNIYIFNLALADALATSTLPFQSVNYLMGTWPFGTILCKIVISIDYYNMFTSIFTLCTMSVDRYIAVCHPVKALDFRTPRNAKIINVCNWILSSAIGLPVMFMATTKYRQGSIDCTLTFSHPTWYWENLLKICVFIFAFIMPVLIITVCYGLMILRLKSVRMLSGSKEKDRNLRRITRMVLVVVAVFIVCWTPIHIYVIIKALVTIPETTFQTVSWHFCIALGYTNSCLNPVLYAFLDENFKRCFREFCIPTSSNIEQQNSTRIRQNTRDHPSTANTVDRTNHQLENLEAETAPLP

[11] = biological target: Muscarinic acetylcholine receptor M3 (Homo sapiens, UniProt P20309)
Sequence of Muscarinic acetylcholine receptor M3 (P20309 whole entry): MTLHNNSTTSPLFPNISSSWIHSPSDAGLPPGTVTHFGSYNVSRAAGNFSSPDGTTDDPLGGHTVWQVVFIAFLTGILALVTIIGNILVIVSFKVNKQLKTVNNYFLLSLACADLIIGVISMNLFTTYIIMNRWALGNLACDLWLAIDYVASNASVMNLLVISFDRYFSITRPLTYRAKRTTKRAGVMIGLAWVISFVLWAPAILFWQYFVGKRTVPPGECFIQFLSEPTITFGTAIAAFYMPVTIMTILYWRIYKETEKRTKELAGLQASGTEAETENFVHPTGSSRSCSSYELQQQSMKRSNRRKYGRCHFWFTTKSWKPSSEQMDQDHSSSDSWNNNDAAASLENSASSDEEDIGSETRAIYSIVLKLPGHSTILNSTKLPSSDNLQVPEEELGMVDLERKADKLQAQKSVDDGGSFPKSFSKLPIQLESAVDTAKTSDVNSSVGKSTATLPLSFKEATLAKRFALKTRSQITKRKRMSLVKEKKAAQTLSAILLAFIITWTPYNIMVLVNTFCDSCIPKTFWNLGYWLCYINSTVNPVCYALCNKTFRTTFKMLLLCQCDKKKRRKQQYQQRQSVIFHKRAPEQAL
Further: assay procedure not described here.

Row | SMILES | AC50 (B2 bradykinin receptor) [µM] | AC50 [1] [µM] | AC50 (Endothelin-1 receptor) [µM] | AC50 [2] [µM] | AC50 [3] [µM] | AC50 [4] [µM] | AC50 (D(1A) dopamine receptor) [µM] | AC50 (Adenosine receptor A2a) [µM] | AC50 [5] [µM] | AC50 [6] [µM] | AC50 [7] [µM] | AC50 [8] [µM] | AC50 [9] [µM] | AC50 [10] [µM] | AC50 (Mu-type opioid receptor) [µM] | AC50 [11] [µM]
1 | CO/N=C(\C(=O)N[C@@H]1C(=O)N2C(C(=O)O)=CCS[C@H]12)c1csc(N)n1 [CEFTIZOXIME] | > 10 | > 30 | > 30 | > 30 | > 30 | > 30 | > 30 | > 30 | > 30 | > 30 | > 30 | > 30 | > 30 | – | – | –
2 | COc1cc(N)c(Cl)cc1C(=O)NC1CCN(CCCOc2ccc(F)cc2)CC1OC (centres undefined) [CISAPRIDE] | > 30 | – | > 30 | > 10 | – | – | > 10 | > 30 | > 30 | – | – | – | > 10 | > 10 | > 30 | –
3 | CC(CN(C)C)C(C)(O)Cc1ccc(Cl)cc1 (centres undefined) [CLOBUTINOL] | > 30 | > 10 | – | > 30 | – | > 10 | > 10 | > 30 | > 30 | > 10 | > 10 | – | > 10 | > 10 | > 30 | > 30
4 | CCOC(=O)C(C)(C)Oc1ccc(Cl)cc1 [CLOFIBRATE] | > 30 | > 10 | > 30 | > 10 | – | > 10 | > 10 | > 30 | > 30 | > 10 | > 10 | – | > 10 | > 10 | > 30 | –
5 | CCCCOc1ccc(C(=O)CCN2CCCCC2)cc1 [DYCLONINE] | > 30 | > 10 | > 30 | > 10 | – | > 10 | > 10 | > 30 | > 30 | > 10 | 8.4 | – | > 10 | > 10 | > 10 | > 10
6 | NNC(=O)c1ccncc1 [ISONIAZID] | > 30 | > 30 | > 30 | > 30 | – | > 30 | > 30 | > 30 | > 30 | > 30 | > 30 | – | > 30 | > 30 | > 30 | –
7 | O=C1Nc2ccc(Cl)cc2C(c2ccccc2Cl)=NC1O (centres undefined) [LORAZEPAM] | > 30 | > 10 | > 30 | > 10 | – | > 10 | > 30 | > 30 | > 30 | > 10 | > 10 | – | > 10 | 0.0074 | > 30 | –
8 | COc1ccc2cc(CCC(C)=O)ccc2c1 [NABUMETONE] | > 10 | > 10 | – | > 10 | – | > 10 | > 30 | > 10 | > 30 | > 10 | > 30 | – | > 10 | > 10 | > 30 | –
9 | Cc1ccnc2c1NC(=O)c1cccnc1N2C1CC1 [NEVIRAPINE] | > 30 | > 10 | > 30 | > 10 | – | > 10 | > 10 | 15.2 | > 30 | > 10 | > 10 | – | – | > 10 | > 10 | –
10 | CCC(=O)O[C@](Cc1ccccc1)(c1ccccc1)[C@H](C)CN(C)C [PROPOXYPHENE] | > 30 | > 10 | > 30 | > 10 | – | > 10 | > 10 | > 30 | > 30 | > 10 | > 10 | – | > 10 | > 10 | 0.693 | 16
11 | CCc1nc(N)nc(N)c1-c1ccc(Cl)cc1 [PYRIMETHAMINE] | > 10 | 9.8 | – | > 10 | – | > 30 | > 10 | > 10 | > 30 | 11.3 | > 30 | – | > 10 | > 10 | > 30 | > 30
12 | CCOC(=O)c1ccc(C#Cc2ccc3c(c2)C(C)(C)CCS3)nc1 [TAZAROTENE] | > 30 | > 10 | – | > 10 | – | > 10 | > 30 | > 30 | > 30 | > 10 | > 10 | – | > 10 | > 10 | > 30 | > 30
13 | CCOC(=O)[C@@H](N)Cc1ccc(-c2cc(O[C@H](c3ccc(Cl)cc3-n3ccc(C)n3)C(F)(F)F)nc(N)n2)cc1 [TELOTRISTAT ETHYL] | > 30 | > 30 | > 30 | > 30 | > 30 | > 30 | > 30 | > 30 | > 30 | > 30 | 22 | – | > 30 | > 30 | > 30 | > 30
14 | CC(c1cc2ccccc2s1)N(O)C(N)=O (centres undefined) [ZILEUTON] | > 10 | > 10 | – | > 10 | – | > 10 | > 10 | > 10 | > 30 | > 10 | > 10 | – | > 10 | > 10 | > 30 | –
